# Test results taken from patent publication US20260042731A1, “(2,4-DICHLOROPHENOXY)ACETIC ACID ANALOGS” (CORTEVA AGRISCIENCE LLC, priority 2022, published 2026).
# Read-outs that look alike come from different tables or passages of the source.
# How the values were obtained:
# [1] = system: weeds (ABUTH, AMATA, AMBEL, CHEAL, ERICA); assay: Postemergence herbicide evaluation, overall average % weed control across ABUTH, AMATA, AMBEL, CHEAL, ERICA; format: in vivo; details: post-emergence, average over the five weeds, read-out: Overall Ave % Weed Control; for pest or weed control at 280 g/ha: 280 g ae/ha; for pest or weed control at 560 g/ha: 560 g ae/ha
# [2] = system: Chenopodium album (CHEAL), common lambsquarters; assay: Postemergence herbicide evaluation, growth of Chenopodium album (CHEAL); format: in vivo; details: Chenopodium album, post-emergence, percent reduction in plant size relative to untreated control, read-out: Ave. CHEAL; for pest or weed control at 280 g/ha: 280 g ae/ha; for pest or weed control at 560 g/ha: 560 g ae/ha
# [3] = system: Amaranthus rudis (AMATA), tall water hemp; assay: Postemergence herbicide evaluation, growth of Amaranthus rudis (AMATA); format: in vivo; details: Amaranthus tuberculatus, post-emergence, percent reduction in plant size relative to untreated control, read-out: Ave. AMATA; for pest or weed control at 280 g/ha: 280 g ae/ha; for pest or weed control at 560 g/ha: 560 g ae/ha
# [4] = system: glyphosate resistant Conyza canadensis (L.) (ERICA), horseweed; assay: Postemergence herbicide evaluation, growth of Conyza canadensis (ERICA); format: in vivo; details: Erigeron canadensis, post-emergence, percent reduction in plant size relative to untreated control, read-out: Ave. ERICA; for pest or weed control at 280 g/ha: 280 g ae/ha; for pest or weed control at 560 g/ha: 560 g ae/ha
# [5] = system: Ambrosia artemisiifolia (AMBEL), common ragweed; assay: Postemergence herbicide evaluation, growth of Ambrosia artemisiifolia (AMBEL); format: in vivo; details: Ambrosia artemisiifolia, post-emergence, percent reduction in plant size relative to untreated control, read-out: AVE. AMBEL; for pest or weed control at 280 g/ha: 280 g ae/ha; for pest or weed control at 560 g/ha: 560 g ae/ha
# [6] = system: Abutilon theophrasti (ABUTH), velvetleaf; assay: Postemergence herbicide evaluation, growth of Abutilon theophrasti (ABUTH); format: in vivo; details: Abutilon theophrasti, post-emergence, percent reduction in plant size relative to untreated control, read-out: AVE. ABUTH; for pest or weed control at 280 g/ha: 280 g ae/ha; for pest or weed control at 560 g/ha: 560 g ae/ha
# [7] = Volatility of compounds measured by thermogravimetric analysis (TGA); format: physicochemical
SMILES,"pest or weed control at 280 g/ha ([1]; 168 h, 7 DAA) [%]","pest or weed control at 560 g/ha ([1]; 168 h, 7 DAA) [%]","pest or weed control at 280 g/ha ([1]; 336 h, 14 DAA) [%]","pest or weed control at 560 g/ha ([1]; 336 h, 14 DAA) [%]","pest or weed control at 280 g/ha ([1]; 504 h, 21 DAA) [%]","pest or weed control at 560 g/ha ([1]; 504 h, 21 DAA) [%]","pest or weed control at 280 g/ha ([2]; 168 h, 7 DAA) [%]","pest or weed control at 560 g/ha ([2]; 168 h, 7 DAA) [%]","pest or weed control at 280 g/ha ([2]; 336 h, 14 DAA) [%]","pest or weed control at 560 g/ha ([2]; 336 h, 14 DAA) [%]","pest or weed control at 280 g/ha ([2]; 504 h, 21 DAA) [%]","pest or weed control at 560 g/ha ([2]; 504 h, 21 DAA) [%]","pest or weed control at 280 g/ha ([3]; 168 h, 7 DAA) [%]","pest or weed control at 560 g/ha ([3]; 168 h, 7 DAA) [%]","pest or weed control at 280 g/ha ([3]; 336 h, 14 DAA) [%]","pest or weed control at 560 g/ha ([3]; 336 h, 14 DAA) [%]","pest or weed control at 280 g/ha ([3]; 504 h, 21 DAA) [%]","pest or weed control at 560 g/ha ([3]; 504 h, 21 DAA) [%]","pest or weed control at 280 g/ha ([4]; 168 h, 7 DAA) [%]","pest or weed control at 560 g/ha ([4]; 168 h, 7 DAA) [%]",also measured
"CC(=O)/C(C)=N/OC(=O)COc1ccc(Cl)cc1Cl [Compound A8, 3-((2-(2,4-Dichlorophenoxy)acetoxy)imino)butan-2-one]",70,79,79,90,84,93,68,70,73,80,83,80,70,75,83,85,78,87,70,73,"pest or weed control at 280 g/ha ([4]; 336 h, 14 DAA): 85%; pest or weed control at 560 g/ha ([4]; 336 h, 14 DAA): 90%; pest or weed control at 280 g/ha ([4]; 504 h, 21 DAA): 92%; pest or weed control at 560 g/ha ([4]; 504 h, 21 DAA): 97%; pest or weed control at 280 g/ha ([5]; 168 h, 7 DAA): 70%; pest or weed control at 560 g/ha ([5]; 168 h, 7 DAA): 80%; pest or weed control at 280 g/ha ([5]; 336 h, 14 DAA): 90%; pest or weed control at 560 g/ha ([5]; 336 h, 14 DAA): 98%; pest or weed control at 280 g/ha ([5]; 504 h, 21 DAA): 96%; pest or weed control at 560 g/ha ([5]; 504 h, 21 DAA): 100%; pest or weed control at 280 g/ha ([6]; 168 h, 7 DAA): 74%; pest or weed control at 560 g/ha ([6]; 168 h, 7 DAA): 95%; pest or weed control at 280 g/ha ([6]; 336 h, 14 DAA): 65%; pest or weed control at 560 g/ha ([6]; 336 h, 14 DAA): 96%; pest or weed control at 280 g/ha ([6]; 504 h, 21 DAA): 70%; pest or weed control at 560 g/ha ([6]; 504 h, 21 DAA): 99%; TGA Data (rate of weight loss, volatility) [7]: 1 µg/min"
O=C(COc1ccc(Cl)cc1Cl)ONC(=O)c1ccc(C(=O)NOC(=O)COc2ccc(Cl)cc2Cl)cc1 [Compound B4],65,69,78,79,83,81,63,63,70,68,75,65,68,70,68,78,65,68,68,68,"pest or weed control at 280 g/ha ([4]; 336 h, 14 DAA): 85%; pest or weed control at 560 g/ha ([4]; 336 h, 14 DAA): 95%; pest or weed control at 280 g/ha ([4]; 504 h, 21 DAA): 99%; pest or weed control at 560 g/ha ([4]; 504 h, 21 DAA): 100%; pest or weed control at 280 g/ha ([5]; 168 h, 7 DAA): 58%; pest or weed control at 560 g/ha ([5]; 168 h, 7 DAA): 65%; pest or weed control at 280 g/ha ([5]; 336 h, 14 DAA): 88%; pest or weed control at 560 g/ha ([5]; 336 h, 14 DAA): 84%; pest or weed control at 280 g/ha ([5]; 504 h, 21 DAA): 95%; pest or weed control at 560 g/ha ([5]; 504 h, 21 DAA): 87%; pest or weed control at 280 g/ha ([6]; 168 h, 7 DAA): 70%; pest or weed control at 560 g/ha ([6]; 168 h, 7 DAA): 80%; pest or weed control at 280 g/ha ([6]; 336 h, 14 DAA): 78%; pest or weed control at 560 g/ha ([6]; 336 h, 14 DAA): 73%; pest or weed control at 280 g/ha ([6]; 504 h, 21 DAA): 83%; pest or weed control at 560 g/ha ([6]; 504 h, 21 DAA): 84%; TGA Data (rate of weight loss, volatility) [7]: 0.3 µg/min"
